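Grown in 96-well plates, cells were treated for 48 hours with each compound at five concentrations. Insufficient inhibition: endpoint recorded as highest concentration tested. The concentration for 50% growth inhibition is given as GI50. TGI: concentration producing complete growth inhibition.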
Tests used:
Experiment in all cases: NCI-60 cell line screen, 48 h
HCT-15 colon = test system: HCT-15 colon
HOP-92 NSCLC = test system: HOP-92 NSCLC
UACC-62 melanoma = test system: UACC-62 melanoma
NCI/ADR-RES ovarian = test system: NCI/ADR-RES ovarian
OVCAR-4 ovarian = test system: OVCAR-4 ovarian
SK-MEL-28 melanoma = test system: SK-MEL-28 melanoma
A549 NSCLC = test system: A549 NSCLC
MALME-3M melanoma = test system: MALME-3M melanoma
UACC-257 melanoma = test system: UACC-257 melanoma
CAKI-1 renal = test system: CAKI-1 renal

SMILES	GI50 (HCT-15 colon) [µM]	TGI (HCT-15 colon) [µM]	GI50 (HOP-92 NSCLC) [µM]	TGI (HOP-92 NSCLC) [µM]	GI50 (UACC-62 melanoma) [µM]	TGI (UACC-62 melanoma) [µM]	GI50 (NCI/ADR-RES ovarian) [µM]	TGI (NCI/ADR-RES ovarian) [µM]	GI50 (OVCAR-4 ovarian) [µM]	TGI (OVCAR-4 ovarian) [µM]	GI50 (SK-MEL-28 melanoma) [µM]	TGI (SK-MEL-28 melanoma) [µM]	GI50 (A549 NSCLC) [µM]	TGI (A549 NSCLC) [µM]	GI50 (MALME-3M melanoma) [µM]	TGI (MALME-3M melanoma) [µM]	GI50 (UACC-257 melanoma) [µM]	TGI (UACC-257 melanoma) [µM]	GI50 (CAKI-1 renal) [µM]	TGI (CAKI-1 renal) [µM]
C=C1C(=O)O[C@H]2[C@H]1CC/C(C=Nc1c(N)cc(C(F)(F)F)cc1C(F)(F)F)=C\CC[C@@]1(C)O[C@@H]21	1.05	3.73	1.22	3.09	1.28	2.99	2	5.75	1.52	3.05	1.87	3.83	1.95	3.74	2	3.95	1.59	3.14	1.49	2.98
Cc1cc(O)cc(C)c1/C=C/c1cncc(C(N)=O)c1	1.54	> 25	1.5	> 14.7	1.36	23.1	1.07	> 10.9	14.5	> 25	2.3	> 25	3.48	> 25	1.64	24.4	3.37	> 25	4.24	> 25
Cc1nc(-c2nc(-c3ccc(OC(F)(F)F)cc3)no2)nn1Cc1cccc(N2CCC(S(C)(=O)=O)CC2)c1	> 21.7	> 100	28.9	> 89	3.51	> 100	0.529	28.6	< 0.0137	> 90.6	> 24.7	> 100	4.62	> 100	> 34.3	> 76.8	0.286	> 86.6	3.28	29.8
CN1CCC2(CC1)NC(=O)c1c(c3ccc(Cl)c(Cl)c3n1C)C2C#N (stereo not drawn)	3.98	15.6	2.52	19.6	1.66	3.22	7.46	23	11.7	> 56	1.92	3.89	7.33	24.6	3.11	9.52	2.12	4.71	4.31	21.3
c1ccc2cc(NCNc3ccc4ccccc4c3)ccc2c1	–	46.4	–	26.6	–	30.7	–	72.5	–	26.6	–	> 88.9	–	47.5	–	20	–	20.9	–	42.7
C[C@@H](NC(=O)/C(C#N)=C/c1ccc([N+](=O)[O-])cc1)c1ccccc1	1.85	3.88	1.89	5.96	1.8	3.71	3.19	13.3	2.15	5.95	1.95	3.83	2.94	8.37	2.92	8.31	2.38	7.09	2.37	6.47
COc1cc(-c2oc3c(OC)cc(OC)c(O)c3c(=O)c2OC)cc(OC)c1OC	–	–	–	> 100	–	> 100	–	> 100	–	> 100	–	> 100	–	> 100	–	> 100	–	–	–	> 100
